Assay type in all cases: cell-based
Assay [1] addresses T1, hNLRP3 (Homo sapiens, UniProt Q96P20).
T1 construct: THP-1 cells were purchased from the American Type Culture Collection; host or cells: THP-1 cells, PMA-differentiated
Kind of assay: hNLRP3 agonist assay: IL-1β production in PMA-differentiated THP-1 cells (ELISA). The note with it: Table 2, 4 hours, IL-1β by ELISA. The method, then: THP-1 cells were purchased from the American Type Culture Collection and sub-cultured according to instructions from the supplier. Prior to experiments, cells were cultured in RPMI 1640 containing 10% heat inactivated FBS, penicillin (100 units/ml) and streptomycin (100 μg/ml), and maintained in log phase prior to experimental setup. Prior to the experiment THP-1 were treated with PMA (Phorbol 12-myristate 13-acetate) (10 μg/ml) for 24 hours. The day of the experiment the media was removed and attaching cells were treated with trypsin for 2 minutes, cells were then collected, washed with PBS (phosphate buffer saline), spin down, resuspended in 2% heat inactivated FBS with RPMI at a concentration of 1×10^6 cells/ml, and 100 μl was plated in a 96 well plate. Cells were incubated with compounds for 4 hours. Cell free supernatant was collected and the production of IL-1β was evaluated by ELISA. Compounds were dissolved in dimethyl sulfoxide (DMSO) and added to the culture medium to achieve desired concentration (e.g. 100, 30, 10, 3, 1, 0.3 or 0.1 μM). A vehicle only control was run concurrently with each experiment. Final DMSO concentration was 1%.

For assay [2], the target named is T2, TLR8 (Homo sapiens, UniProt Q9NR97).
T2 sequence (Q9NR97 27-1041): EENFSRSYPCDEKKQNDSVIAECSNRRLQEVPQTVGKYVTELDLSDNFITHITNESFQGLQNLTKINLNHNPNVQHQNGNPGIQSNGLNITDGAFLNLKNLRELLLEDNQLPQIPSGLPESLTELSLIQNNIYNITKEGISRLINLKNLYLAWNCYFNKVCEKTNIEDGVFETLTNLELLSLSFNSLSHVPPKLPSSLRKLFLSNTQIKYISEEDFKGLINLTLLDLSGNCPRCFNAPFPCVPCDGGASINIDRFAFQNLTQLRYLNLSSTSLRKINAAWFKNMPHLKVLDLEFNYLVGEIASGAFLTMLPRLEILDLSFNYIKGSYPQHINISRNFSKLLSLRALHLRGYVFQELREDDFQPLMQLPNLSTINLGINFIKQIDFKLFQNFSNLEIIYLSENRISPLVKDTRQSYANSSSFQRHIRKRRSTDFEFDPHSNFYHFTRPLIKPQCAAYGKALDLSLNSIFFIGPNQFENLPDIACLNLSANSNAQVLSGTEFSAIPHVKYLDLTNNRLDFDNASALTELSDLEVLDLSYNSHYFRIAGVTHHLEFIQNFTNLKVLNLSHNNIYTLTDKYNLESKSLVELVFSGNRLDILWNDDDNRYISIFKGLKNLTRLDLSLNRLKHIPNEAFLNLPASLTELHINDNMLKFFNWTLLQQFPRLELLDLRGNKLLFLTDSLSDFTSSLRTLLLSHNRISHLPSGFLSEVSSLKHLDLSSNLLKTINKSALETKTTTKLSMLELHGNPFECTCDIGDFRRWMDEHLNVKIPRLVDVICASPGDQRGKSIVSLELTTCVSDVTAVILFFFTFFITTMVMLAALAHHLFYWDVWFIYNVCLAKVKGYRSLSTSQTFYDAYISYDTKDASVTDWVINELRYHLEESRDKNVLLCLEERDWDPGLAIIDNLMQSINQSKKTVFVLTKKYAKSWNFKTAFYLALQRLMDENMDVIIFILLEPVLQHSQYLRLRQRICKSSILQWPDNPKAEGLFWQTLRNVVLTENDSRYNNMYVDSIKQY
Kind of assay: TLR8 EC50 assay. Conditions: Table 2.

Assay [3] addresses T3, TLR7 (Homo sapiens, UniProt Q9NYK1).
T3 sequence (Q9NYK1 27-1049): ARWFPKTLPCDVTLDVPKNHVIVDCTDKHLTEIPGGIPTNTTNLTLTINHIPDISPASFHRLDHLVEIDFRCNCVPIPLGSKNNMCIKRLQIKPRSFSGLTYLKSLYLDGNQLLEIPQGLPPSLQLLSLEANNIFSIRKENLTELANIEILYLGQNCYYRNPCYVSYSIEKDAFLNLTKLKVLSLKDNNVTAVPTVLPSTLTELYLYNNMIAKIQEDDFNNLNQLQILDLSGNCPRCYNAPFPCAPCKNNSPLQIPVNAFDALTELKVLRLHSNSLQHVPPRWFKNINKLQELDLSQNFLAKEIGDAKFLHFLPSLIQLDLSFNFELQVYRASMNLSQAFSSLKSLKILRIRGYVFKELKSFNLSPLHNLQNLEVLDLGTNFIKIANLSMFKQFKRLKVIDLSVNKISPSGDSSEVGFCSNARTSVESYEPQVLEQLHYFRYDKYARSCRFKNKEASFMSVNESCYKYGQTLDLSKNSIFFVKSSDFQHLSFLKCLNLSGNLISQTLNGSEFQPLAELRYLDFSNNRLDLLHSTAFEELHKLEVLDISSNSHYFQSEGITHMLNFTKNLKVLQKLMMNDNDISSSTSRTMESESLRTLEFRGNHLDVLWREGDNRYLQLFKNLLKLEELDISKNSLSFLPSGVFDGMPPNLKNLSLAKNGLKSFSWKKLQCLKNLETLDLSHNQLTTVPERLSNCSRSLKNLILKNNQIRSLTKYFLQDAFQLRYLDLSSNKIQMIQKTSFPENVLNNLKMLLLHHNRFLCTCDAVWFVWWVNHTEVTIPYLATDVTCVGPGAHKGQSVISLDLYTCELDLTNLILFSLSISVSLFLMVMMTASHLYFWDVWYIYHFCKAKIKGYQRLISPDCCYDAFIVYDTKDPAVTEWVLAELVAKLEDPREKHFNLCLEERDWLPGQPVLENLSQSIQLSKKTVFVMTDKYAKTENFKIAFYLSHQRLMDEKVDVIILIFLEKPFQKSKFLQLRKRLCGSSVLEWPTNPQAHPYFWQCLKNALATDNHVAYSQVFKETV
Kind of assay: TLR7 EC50 assay. Conditions: Table 2.

Bounds are passed on as bounds.

T1 sequence (Q96P20 whole entry): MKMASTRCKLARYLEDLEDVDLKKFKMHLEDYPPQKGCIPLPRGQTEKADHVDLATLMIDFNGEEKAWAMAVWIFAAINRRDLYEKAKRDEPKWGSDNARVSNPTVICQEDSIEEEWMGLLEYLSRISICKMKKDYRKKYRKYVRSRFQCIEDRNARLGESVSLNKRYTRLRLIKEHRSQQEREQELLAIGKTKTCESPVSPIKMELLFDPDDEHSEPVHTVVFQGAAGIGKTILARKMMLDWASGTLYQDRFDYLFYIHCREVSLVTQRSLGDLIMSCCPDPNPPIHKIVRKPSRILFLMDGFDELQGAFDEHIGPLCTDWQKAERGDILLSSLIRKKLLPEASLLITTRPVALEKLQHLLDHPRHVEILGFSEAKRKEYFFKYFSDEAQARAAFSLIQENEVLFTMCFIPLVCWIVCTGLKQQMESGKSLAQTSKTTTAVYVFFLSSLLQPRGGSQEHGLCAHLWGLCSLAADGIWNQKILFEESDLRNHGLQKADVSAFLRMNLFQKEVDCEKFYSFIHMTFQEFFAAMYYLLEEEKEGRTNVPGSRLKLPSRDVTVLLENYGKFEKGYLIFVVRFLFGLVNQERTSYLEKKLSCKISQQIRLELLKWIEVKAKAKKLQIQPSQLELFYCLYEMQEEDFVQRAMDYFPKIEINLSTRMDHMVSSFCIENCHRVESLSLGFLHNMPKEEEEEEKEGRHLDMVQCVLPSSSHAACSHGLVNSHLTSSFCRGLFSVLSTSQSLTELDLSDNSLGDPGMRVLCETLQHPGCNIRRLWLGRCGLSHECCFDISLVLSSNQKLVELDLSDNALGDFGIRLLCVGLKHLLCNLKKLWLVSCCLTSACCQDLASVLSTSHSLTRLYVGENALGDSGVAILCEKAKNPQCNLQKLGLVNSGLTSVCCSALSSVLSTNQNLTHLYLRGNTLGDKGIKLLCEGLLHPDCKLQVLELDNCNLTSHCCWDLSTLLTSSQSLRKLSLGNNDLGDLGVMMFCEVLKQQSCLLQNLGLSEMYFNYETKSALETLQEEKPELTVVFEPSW

Turning to `Cc1cccc(-c2ccc3c(c2)nc(N)c2nc(CCCO)[nH]c23)c1` [Compound 205, 3-[4-amino-7-(3-methylphenyl)-1H-imidazo[4,5-c]quinolin-2-yl]propan-1-ol], the EC50 in assay [1] is 20 to 100 µM; in assay [2], greater than 100 µM; in assay [3] it was greater than 100 µM.
With `Cn1cc(-c2ccc3c(c2)nc(N)c2nc(CCCO)[nH]c23)cn1` [Compound 193, 3-[4-amino-7-(1-methylpyrazol-4-yl)-1H-imidazo[4,5-c]quinolin-2-yl]propan-1-ol], the values for the EC50 in assay [1], in assay [2] and in assay [3] were 20 to 100 µM, greater than 100 µM and greater than 100 µM, respectively.
As to `CN1CCC(c2nc3c(N)nc4ccccc4c3[nH]2)CC1` [Compound 228], the EC50 in assay [1] is 20 to 100 µM; in assay [2], greater than 100 µM; in assay [3] it was greater than 100 µM.
Regarding `Cn1nccc1-c1ccc2c(c1)nc(N)c1nc(CCCO)[nH]c12` [Compound 190, 3-[4-amino-7-(2-methylpyrazol-3-yl)-1H-imidazo[4,5-c]quinolin-2-yl]propan-1-ol], the results for the half-maximal effective concentration (EC50) in assay [1], in assay [2] and in assay [3] were 20 to 100 µM, greater than 100 µM and greater than 100 µM, respectively.
With `Cc1ccc(-c2ccc3c(c2)nc(N)c2nc(CCCO)[nH]c23)cc1` [Compound 210, 3-[4-amino-7-(4-methylphenyl)-1H-imidazo[4,5-c]quinolin-2-yl]propan-1-ol], the EC50 in assay [1], in assay [2] and in assay [3] was greater than 100 µM throughout.
Regarding `Nc1nc2cc(-n3ccnc3)ccc2c2[nH]c(CCCO)nc12` [Compound 179, 3-(4-amino-7-imidazol-1-yl-1H-imidazo[4,5-c]quinolin-2-yl)propan-1-ol], the EC50 in assay [1], in assay [2] and in assay [3] was greater than 100 µM each time.
For the molecule `Nc1nc2cc(Oc3ccccc3)ccc2c2[nH]c(CCCO)nc12` [Compound 163, 3-(4-amino-7-phenoxy-1H-imidazo[4,5-c]quinolin-2-yl)propan-1-ol], the values for the EC50 in assay [1], in assay [2] and in assay [3] were 20 to 100 µM, greater than 100 µM and greater than 100 µM, respectively.
For `CC(C)(C)OC(=O)N1CCC(c2nc3c(N)nc4cc(Br)ccc4c3[nH]2)CC1` [Compound 225], the EC50 in assay [1] is 1 to 20 µM; in assay [2], greater than 100 µM; in assay [3], greater than 100 µM.
Regarding `Nc1nc2cc(-c3ccncc3)ccc2c2[nH]c(CCCO)nc12` [Compound 149], the values for the concentration for a half-maximal effect (EC50) in assay [1], in assay [2] and in assay [3] were 1 to 20 µM, greater than 100 µM and greater than 100 µM, respectively.
For the molecule `Nc1nc2cc(C3CCCCC3)ccc2c2[nH]c(CCCO)nc12` [Compound 174, 3-(4-amino-7-cyclohexyl-1H-imidazo[4,5-c]quinolin-2-yl)propan-1-ol], the EC50 in assay [1] was 20 to 100 µM; in assay [2], greater than 100 µM; in assay [3] it was greater than 100 µM.
On to `Nc1nc2cc(-c3ccccc3)ccc2c2[nH]c(CCCO)nc12` [Compound 145, 3-(4-amino-7-phenyl-1H-imidazo[4,5-c]quinolin-2-yl)propan-1-ol], for which the EC50 in assay [1] is no more than 1 µM; in assay [2], greater than 100 µM; in assay [3] it was greater than 100 µM.
As to `COC(=O)CCn1c(CCCO)nc2c(N)nc3cc(Br)ccc3c21` [Compound 142], the EC50 in assay [1] was 1 to 20 µM; in assay [2], greater than 100 µM; in assay [3], greater than 100 µM.
As for `Cc1ccncc1-c1ccc2c(c1)nc(N)c1nc(CCCO)[nH]c12` [Compound 213, 3-[4-amino-7-(4-methylpyridin-3-yl)-1H-imidazo[4,5-c]quinolin-2-yl]propan-1-ol], the EC50 in assay [1] was greater than 100 µM; in assay [2] it was greater than 100 µM; in assay [3], 1 to 20 µM.
For `Nc1nc2cc(C(F)(F)F)ccc2c2[nH]c(CCCO)nc12` [Compound 127], the EC50 in assay [1] was 20 to 100 µM; in assay [2] it was greater than 100 µM; in assay [3], 20 to 100 µM.
`Cn1c(CCCO)nc2c(N)nc3ccccc3c21` [Compound 130]: the EC50 was 20 to 100 µM in assay [1], greater than 100 µM in assay [2] and greater than 100 µM in assay [3].
With `CCCn1cc(-c2ccc3c(c2)nc(N)c2nc(CCCO)[nH]c23)cn1` [Compound 153, 3-[4-amino-7-(1-propylpyrazol-4-yl)-1H-imidazo[4,5-c]quinolin-2-yl]propan-1-ol], the EC50 in assay [1] was 1 to 20 µM; in assay [2], greater than 100 µM; in assay [3], greater than 100 µM.
Consider `CN(C)C(=O)CCCn1c(CCCO)nc2c(N)nc3cc(Br)ccc3c21` [Compound 169], for which the EC50 in assay [1] was 1 to 20 µM; in assay [2], greater than 100 µM; in assay [3], greater than 100 µM.
For `CCN(C(C)=O)C(C)(C)c1nc2c(N)nc3cc(-c4cc[nH]n4)ccc3c2[nH]1` [Compound 253], the figures for the EC50 in assay [1], in assay [2] and in assay [3] were 1 to 20 µM, greater than 100 µM and greater than 100 µM, respectively.
On to `Nc1nc2cc(-c3cc[nH]n3)ccc2c2[nH]c(CN3CC4COCC4C3)nc12` (stereo not drawn) [Compound 232], for which the EC50 in assay [1] was 1 to 20 µM; in assay [2] it was greater than 100 µM; in assay [3] it was greater than 100 µM.
As for `CS(=O)(=O)N1CCC(c2nc3c(N)nc4cc(-n5cccn5)ccc4c3[nH]2)CC1` [Compound 114], the concentration for a half-maximal effect (EC50) in assay [1] is 1 to 20 µM; in assay [2] it was greater than 100 µM; in assay [3], greater than 100 µM.
With `CCN(C(C)=O)C(C)c1nc2c(N)nc3cc(-c4cc[nH]n4)ccc3c2[nH]1` (stereo not drawn) [Compound 241], the 50% effective concentration (EC50) in assay [1] is 1 to 20 µM; in assay [2] it was greater than 100 µM; in assay [3] it was greater than 100 µM.
Consider `COC(=O)CCCn1c(CCCO)nc2c(N)nc3cc(Br)ccc3c21` [Compound 141], for which the EC50 is 1 to 20 µM in assay [1], greater than 100 µM in assay [2] and greater than 100 µM in assay [3].
Turning to `Nc1nc2cc(-c3cccnc3)ccc2c2[nH]c(CCCO)nc12` [Compound 147, 3-(4-amino-7-pyridin-3-yl-1H-imidazo[4,5-c]quinolin-2-yl)propan-1-ol], the EC50 was 1 to 20 µM in assay [1], greater than 100 µM in assay [2] and greater than 100 µM in assay [3].
As for `Nc1nc2cc(-c3ccc(Cl)cc3)ccc2c2[nH]c(CCCO)nc12` [Compound 209, 3-[4-amino-7-(4-chlorophenyl)-1H-imidazo[4,5-c]quinolin-2-yl]propan-1-ol], the EC50 in assay [1], in assay [2] and in assay [3] was greater than 100 µM throughout.

Broadly, the EC50 is the midpoint of the concentration-response curve. A high value points to lower potency in that assay.

The values are drawn from patent US11072612B2, “NLRP3 modulators” (INNATE TUMOR IMMUNITY, INC., priority 2016, dated 2021).
